Laboratory results taken from DBAASP.
≈ marks a conversion by molar mass, not a printed value. Values belong to the molecule of their own block, whether it stands above or below them.

How the values were obtained:
Assay in all cases: ≥ marks a high value that may be exact or a test limit, other limits are often not marked, values filed in µg/mL are converted to µM
Bacillus cereus C737 = test system: Bacillus cereus C737
Escherichia coli UB1005 = test system: Escherichia coli UB1005
[1] = test system: Pseudomonas aeruginosa PAO1
[2] = test system: Staphylococcus aureus USA 300
[3] = test system: Escherichia coli ATCC 25922
[4] = test system: Klebsiella pneumoniae ATCC 13883
[5] = test system: Staphylococcus aureus USA 300 LAC
[6] = test system: Acinetobacter baumannii ATCC 19606
[7] = test system: Acinetobacter baumannii ATCC BAA-1605
[8] = test system: Acinetobacter baumannii ATCC BAA-747
[9] = test system: Acinetobacter baumannii NR-13375
[10] = test system: Acinetobacter baumannii NR-13382
[11] = test system: Acinetobacter baumannii NR-17784
[12] = test system: Acinetobacter baumannii NR-9667
[13] = test system: Pseudomonas aeruginosa 1017
[14] = test system: Pseudomonas aeruginosa 1109
[15] = test system: Pseudomonas aeruginosa 1125
[16] = test system: Pseudomonas aeruginosa 1131
[17] = test system: Pseudomonas aeruginosa ATCC 10145
[18] = test system: Pseudomonas aeruginosa ATCC 15442
[19] = test system: Pseudomonas aeruginosa ATCC 25619
[20] = test system: Pseudomonas aeruginosa ATCC 27853
[21] = test system: Pseudomonas aeruginosa ATCC 35032
[22] = test system: Pseudomonas aeruginosa ATCC 9027
[23] = test system: Pseudomonas aeruginosa ATCC 9721
[24] = test system: Pseudomonas aeruginosa ATCC BAA-1744
Escherichia coli K-12 = test system: Escherichia coli K-12
Klebsiella pneumoniae = test system: Klebsiella pneumoniae
[25] = test system: Pseudomonas aeruginosa PA-W14
[26] = test system: Pseudomonas aeruginosa PA-W1
[27] = test system: Staphylococcus aureus NCTC 8325-4
Staphylococcus aureus = test system: Staphylococcus aureus
[28] = test system: Streptococcus gordonii ATCC 10558
[29] = test system: Streptococcus oralis ATCC 9811
[30] = test system: Streptococcus sanguinis ATCC 10556

SMILES: CC[C@H](C)[C@H](NC(=O)[C@H](CC(=O)O)NC(=O)[C@H](Cc1ccccc1)NC(=O)[C@H](CC(C)C)NC(=O)CN)C(=O)N[C@H](C(=O)N[C@@H](CCCCN)C(=O)N[C@@H](CCCCN)C(=O)N[C@H](C(=O)N[C@H](C(=O)NCC(=O)N[C@@H](C)C(=O)N[C@@H](CC(C)C)C(N)=O)C(C)C)C(C)C)C(C)C [GLFDIVKKVVGAL]
- MIC (Bacillus cereus C737): ≥ 47.1 µM
- MIC (Escherichia coli UB1005): 23.6 µM (≈ 32 µg/mL)
- MIC [1]: > 94.2 µM
- MIC [2]: 11.8 µM (≈ 16 µg/mL)

SMILES: CC[C@H](C)[C@H](NC(=O)[C@H](CCC(N)=O)NC(=O)[C@H](CCC(=O)O)NC(=O)[C@H](CCCCN)NC(=O)[C@@H]1CCCN1C(=O)[C@H](CC(C)C)NC(=O)[C@H](CS)NC(=O)[C@H](CO)NC(=O)[C@H](CC(C)C)NC(=O)[C@@H](NC(=O)[C@H](C)NC(=O)[C@H](CS)NC(=O)[C@H](CCCN=C(N)N)NC(=O)CNC(=O)CNC(=O)CNC(=O)CNC(=O)[C@H](Cc1c[nH]c2ccccc12)NC(=O)[C@@H](NC(=O)[C@H](Cc1cnc[nH]1)NC(=O)[C@H](CCSC)NC(=O)CNC(=O)[C@@H]1CCCN1C(=O)[C@H](C)NC(=O)[C@H](CC(=O)O)NC(=O)[C@@H]1CCCN1C(=O)[C@H](CC(C)C)NC(=O)[C@H](CCCCN)NC(=O)[C@@H](N)CCCN=C(N)N)[C@@H](C)O)C(C)C)C(=O)O [RKLPDAPGMHTWGGGGRCAVLSCLPKEQI]
- MIC [28]: ≥ 294 µM
- MIC [29]: ≥ 208 µM
- MIC [30]: ≥ 227 µM

The remaining lines, values ahead:

- MIC [3]: 25 µM (≈ 31.8 µg/mL)
- MIC [4]: 25 µM (≈ 31.8 µg/mL)
- MIC [1]: 12.5 µM (≈ 15.9 µg/mL)
- MIC [5]: 12.5 µM (≈ 15.9 µg/mL)
- MIC [2]: 12.5 µM (≈ 15.9 µg/mL)
SMILES: CC[C@H](C)[C@H](NC(=O)[C@H](CCCN=C(N)N)NC(=O)[C@H](CCCN=C(N)N)NC(=O)[C@H](CC(C)C)NC(=O)[C@H](CCCN=C(N)N)NC(=O)[C@H](Cc1c[nH]c2ccccc12)NC(=O)[C@@H](N)Cc1c[nH]c2ccccc12)C(=O)N[C@@H](Cc1c[nH]c2ccccc12)C(N)=O [WWRLRRIW]

- MIC [6]: 16 µM (≈ 31.5 µg/mL)
- MIC [7]: 16 µM (≈ 31.5 µg/mL)
- MIC [8]: 8 µM (≈ 15.7 µg/mL)
- MIC [9]: 8 µM (≈ 15.7 µg/mL)
- MIC [10]: 16 µM (≈ 31.5 µg/mL)
- MIC [11]: 4 µM (≈ 7.87 µg/mL)
- MIC [12]: ≥ 32 µM
- MIC [13]: ≥ 64 µM
- MIC [14]: 8 µM (≈ 15.7 µg/mL)
- MIC [15]: ≥ 32 µM
- MIC [16]: 16 µM (≈ 31.5 µg/mL)
- MIC [17]: 16 µM (≈ 31.5 µg/mL)
- MIC [18]: 16 µM (≈ 31.5 µg/mL)
- MIC [19]: 4 µM (≈ 7.87 µg/mL)
- MIC [20]: 8 µM (≈ 15.7 µg/mL)
- MIC [21]: 16 µM (≈ 31.5 µg/mL)
- MIC [22]: 4 µM (≈ 7.87 µg/mL)
- MIC [23]: 16 µM (≈ 31.5 µg/mL)
- MIC [24]: 16 µM (≈ 31.5 µg/mL)
SMILES: CC[C@H](C)[C@H](NC(=O)[C@H](CCCN=C(N)N)NC(=O)[C@H](CCCN=C(N)N)NC(=O)[C@H](CC(C)C)NC(=O)[C@@H](N)Cc1c[nH]c2ccccc12)C(=O)N[C@@H](CCCCN)C(=O)N[C@@H](C)C(=O)N[C@@H](Cc1c[nH]c2ccccc12)C(=O)N[C@@H](CC(C)C)C(=O)N[C@@H](CCCN=C(N)N)C(=O)N[C@@H](CCCN=C(N)N)C(=O)N[C@@H](CCCCN)C(=O)N[C@@H](CCCN=C(N)N)C(=O)N[C@@H](CCCCN)C(=O)O [WLRRIKAWLRRKRK]

- MIC (Escherichia coli K-12): 15.6 µM (≈ 24.8 µg/mL)
- MIC (Klebsiella pneumoniae): 62.5 µM (≈ 99.3 µg/mL)
- MIC [25]: ≥ 125 µM
- MIC [26]: 31.3 µM (≈ 49.7 µg/mL)
- MIC [1]: 15.6 µM (≈ 24.8 µg/mL)
- MIC [27]: 15.6 µM (≈ 24.8 µg/mL)
- MIC (Staphylococcus aureus): 15.6 µM (≈ 24.8 µg/mL)
SMILES: NCCCC[C@H](NC(=O)[C@H](Cc1c[nH]c2ccccc12)NC(=O)[C@H](Cc1c[nH]c2ccccc12)NC(=O)[C@H](CCCCN)NC(=O)[C@H](CCCCN)NC(=O)[C@H](Cc1c[nH]c2ccccc12)NC(=O)[C@H](Cc1c[nH]c2ccccc12)NC(=O)[C@H](CCCCN)NC(=O)[C@H](CCCCN)NC(=O)[C@@H](N)Cc1c[nH]c2ccccc12)C(N)=O [WKKWWKKWWK]
